Source: US20060019329A1, “Method of screening for protein inhibitors and activators” (priority 1988, published 2006)

Assays:
[1] = biological target: high affinity phorbol-ester binding sites (PKC); conditions: read-out: affinity constant (Kd) of phorbol ester binding; control cell line R6-C1; intact cells; Scatchard; approximately the same in both cell lines
Experimental: Cells were plated at 1×10^5 per 4 cm well on day 1, the medium was changed on day 2 and the cells then assayed on day 3. […] The plates were washed 3× with 4 ml ice-cold PBS. The cells were solubilized in 1 ml 1% SDS/10 mM DTT for 2 hrs at 37° C. The lysate was transferred to a scintillation vial and counted.

[2] = system: cell lines overproducing PKC; assay: Growth in agar of cell lines overproducing PKC (further screening of activators and inhibitors); format: cell-based, rat
Experimental: (§1) Cells were seeded at a density of 10^4/plate in a series of 60 mm plates, in 5 ml DMEM plus 10% CS. Twenty-four hours later, cells in triplicate plates were trypsinized and counted. This point was designated “day 0.” The remaining cultures were then grown in the respective medium (i.e. plus or minus 100 ng/ml TPA) with fresh medium changes twice per week. Cell counts per plate were then determined on triplicate plates during the remainder of the growth curve (FIG. 3). The results obtained were analyzed for exponential doubling time and saturation density (Table 2). To assess growth in soft agar (anchorage independence), 2×10^4 cells were suspended in 2 ml of 0.3% Bacto agar (Difco Laboratories, Detroit, Mich.) in DMEM containing 20% fetal calf serum (FCS) and overlayed above a layer of 5 ml of 0.5% agar in the same medium, on 60 mm petri dishes. The cells were then overlaid with DMEM plus 20% FCS every 4 days. At the end of 30 days, colonies were stained with the vital stain 2-(p-iodophenyl)-3-(p-nitrophenyl)-5-phenyltetrazolinium chloride hydrate (INT) (Sigma Chemical Co., St. Louis, Mo.) for 48 hours at 37° C., in an incubator with 5% CO2 (Schaeffer and Friend, 1976), and the number of colonies counted under low power on an inverted phase microscope. The data are expressed as “cloning efficiency”, i.e. number of colonies greater than 0.05 mm per plate X 100 divided by the number of cells originally seeded per plate.
Additional compounds tested included the tumor promoters teleocidin, aplysiatoxin, and mezerein, all of which are known activators of PKC (O'Brian, et al., CSH, 1985).
Inhibition of the growth of the R6-PKC3 cells in agar in the presence of tamoxifen provided critical evidence that tamoxifen could inhibit PKC-mediated stimulation of cellular growth.

[3] = system: R6-PKC5 cells (Rat 6 fibroblasts overproducing PKCbeta1); assay: Growth in soft agar (anchorage independence), R6-PKC5; format: cell-based
Experimental: as §1
(§2) I also assayed these cell lines for their ability to form colonies in soft agar, since with rodent cells the acquisition of anchorage-independent growth often correlates with tumorigenicity (Freedman and Shin, 1974).

[4] = system: R6-PKC3 cells (Rat 6 fibroblasts overproducing PKCbeta1); assay: Growth in soft agar (anchorage independence), R6-PKC3; format: cell-based
Experimental: as §1, §2

R6-PKC3 cells [5] = assay: Morphologic response to phorbol ester treatment, R6-PKC3; format: cell-based, rat
Experimental: (§3) FIG. 4. Morphologic Responses of the Cell Lines to Phorbol Ester Treatment. Nearly confluent cultures of the three indicated cell lines were exposed to 100 ng/ml TPA in 0.1% dimethylsulfoxide (DMSO) solvent (“+TPA”) or 0.1% DMSO alone (“−TPA”), in DMEM plus 10% CS. Photographs were taken 24 hours later (Panels A and D) and 48 hours later (Panels B and E). Fresh medium plus or minus TPA was then added and photographs were then taken an additional 24 hours later (Panels C and F). (Magnification: 100×).
(§4) All of the cell lines were then exposed to a second, fresh dose of TPA (100 ng/ml) and examined 24 hours later (FIG. 4, Panel F), i.e., 72 hours after the first dose of TPA.

R6-C1 control cells [6] = assay: Morphologic response to phorbol ester treatment, control R6-C1; format: cell-based, rat
Experimental: as §3, §4

[7] = system: FDC-P1 cells overproducing PKC beta1; assay: Morphologic response of FDC-P1 cells overproducing PKCbeta1 to PKC activators; format: cell-based; conditions: 100 nM TPA, after 12 hours
Experimental: Several cell lines were plated at 3×10E4 cells/ml and treated with 100 nM TPA. After 12 hours, representative fields were photographed. […] The latter clumps are easily visualized with standard cell stains such as Giemsa, and stain much darker than the corresponding control cells under these conditions.

R6-PKC5 cells [8] = assay: Morphologic response to phorbol ester treatment, R6-PKC5; format: cell-based, rat
Experimental: as §3, §4

R6-C1 control cells [9] = assay: Growth in monolayer culture, control R6-C1; format: cell-based, rat; conditions: R6C1 (control), + TPA 100 ng/ml
Experimental: (§5) Cells were seeded at a density of 10^4/plate in a series of 60 mm plates, in 5 ml DMEM plus 10% CS. Twenty-four hours later, cells in triplicate plates were trypsinized and counted. This point was designated “day 0.” The remaining cultures were then grown in the respective medium (i.e. plus or minus 100 ng/ml TPA) with fresh medium changes twice per week. Cell counts per plate were then determined on triplicate plates during the remainder of the growth curve (FIG. 3). The results obtained were analyzed for exponential doubling time and saturation density (Table 2). To assess growth in soft agar (anchorage independence), 2×10^4 cells were suspended in 2 ml of 0.3% Bacto agar (Difco Laboratories, Detroit, Mich.) in DMEM containing 20% fetal calf serum (FCS) and overlayed above a layer of 5 ml of 0.5% agar in the same medium, on 60 mm petri dishes. […] At the end of 30 days, colonies were stained with the vital stain 2-(p-iodophenyl)-3-(p-nitrophenyl)-5-phenyltetrazolinium chloride hydrate (INT) (Sigma Chemical Co., St. Louis, Mo.) for 48 hours at 37° C., in an incubator with 5% CO2 (Schaeffer and Friend, 1976), and the number of colonies counted under low power on an inverted phase microscope. The data are expressed as “cloning efficiency”, i.e. number of colonies greater than 0.05 mm per plate X 100 divided by the number of cells originally seeded per plate. […]

R6-PKC5 cells [10] = assay: Growth in monolayer culture, R6-PKC5; format: cell-based, rat; conditions: R6-PKC5 (test), + TPA 100 ng/ml
Experimental: as §5

[11] = system: R6-C1 control cells (Rat 6 fibroblasts with pMV7 alone); assay: Growth in soft agar (anchorage independence), control R6-C1; format: cell-based
Experimental: as §5

R6-PKC3 cells [12] = assay: Growth in monolayer culture, R6-PKC3; format: cell-based, rat
Experimental: as §1
It was also of interest to determine the growth rates of these cells in monolayer culture. Detailed growth curves were performed on R6-C1, R6-PKC3 and R6-PKC5 cells in 10% calf serum and DMEM medium, in the absence and presence of 100 ng/ml TPA.

PKC = conditions: cell-free assay (O'Brian, et al, Cancer Res., 1985); cited from earlier work
[13] = R6-PKC5 (test), + TPA 100 ng/ml, 0.3% agar
[14] = R6-PKC3 (test), + TPA 100 ng/ml, 0.3% agar
[15] = 24 hours after second 100 ng/ml dose (72 hours after first)
[16] = initial exponential phase, DMEM plus 10% CS

CCCC(=O)O[C@@H]1[C@@H](C)[C@@]2(O)[C@@H](C=C(CO)C[C@]3(O)C(=O)C(C)=C[C@@H]23)[C@@H]2C(C)(C)[C@]12OC(=O)CCC [3H-PDBu] showed a Kd [1] of 0.016 µM.
For CC1CNCCN1S(=O)(=O)c1cccc2cnccc12 (stereo not shown) [H-7, 1-(5-Isoquinolinesulfonyl)-2-methyl-piperazine], the “modulation of the growth of the cells” value ([2]; PKC-overproducing cell lines, known activators or inhibitor of PKC) was “modulated the growth of the cells in the expected manner”, the “Effic. of Growth In Agar (%)” value ([3]; R6-PKC5, inhibitor 2 μM) was 21% and the “Effic. of Growth In Agar (%)” value ([3]; R6-PKC5, inhibitor 5 μM) was 16%. The “Effic. of Growth In Agar (%)” value ([3]; R6-PKC5, inhibitor 10 μM) was 4%, the “Effic. of Growth In Agar (%)” value ([3]; R6-PKC5, inhibitor 50 μM) was 1% and the “Effic. of Growth In Agar (%)” value ([3]; R6-PKC5, inhibitor 100 μM) was 0%. The “Effic. of Growth In Agar (%)” value ([4]; R6-PKC3, inhibitor 2 μM) was 25%, the “Effic. of Growth In Agar (%)” value ([4]; R6-PKC3, inhibitor 5 μM) was 22% and the “Effic. of Growth In Agar (%)” value ([4]; R6-PKC3, inhibitor 10 μM) was 17%. The “Effic. of Growth In Agar (%)” value ([4]; R6-PKC3, inhibitor 50 μM) was 4% and the “Effic. of Growth In Agar (%)” value ([4]; R6-PKC3, inhibitor 100 μM) was 0%.
With CCCCCCCCCCCCCC(=O)O[C@@H]1[C@@H](C)[C@@]2(O)[C@@H](C=C(CO)C[C@]3(O)C(=O)C(C)=C[C@@H]23)[C@@H]2C(C)(C)[C@]12OC(C)=O [TPA, 12-O-tetradecanoylphorbol-13-acetate] the “Agar Colony Size” value [3, 13] was 0.10-0.15 mm, the “Agar Effic.” value [3, 13] was 34.7% and the “colony sizes and cloning efficiencies in agar” value ([3]; R6-PKC5, TPA 100 ng/ml in agar medium) was “enhanced”. The “Agar Colony Size” value [4, 14] was 0.15-0.35 mm, the “Agar Effic.” value [4, 14] was 29.7% and the “colony sizes and cloning efficiencies in agar” value ([4]; R6-PKC3, TPA 100 ng/ml in agar medium) was “enhanced”. The “morphology after TPA” value (R6-PKC3 cells [5]; 24 hours after 100 ng/ml TPA) was “very long cytoplasmic processes and numerous refractile cell bodies”, the “morphologic response to second dose of TPA” value (from here on “morphologic response”) (R6-PKC3 cells [5]; [15]) was “continued to display their altered morphology as well as an increase in cell density” and the “morphology after TPA” value (R6-PKC3 cells [5]; 48 hours after 100 ng/ml TPA) was “continued to display an altered morphology”. The “morphology after TPA” value (R6-C1 control cells [6]; 24 hours after 100 ng/ml TPA) was “more elongated and dendritic cells and a criss-cross pattern”, the “morphologic response” value (R6-C1 control cells [6]; [15]) was “failed to respond” and the “morphology after TPA” value (R6-C1 control cells [6]; 48 hours after 100 ng/ml TPA) was “returned to its normal appearance”. The morphologic changes [7] was “profound morphologic changes”, the “morphologic changes after TPA compared with control” value (R6-PKC5 cells [8]; 24 hours after 100 ng/ml TPA) was “much more dramatic” and the “morphologic response” value (R6-PKC5 cells [8]; [15]) was “only slight changes in morphology”. The “morphology after TPA” value (R6-PKC5 cells [8]; 48 hours after 100 ng/ml TPA, to a lesser extent than R6-PKC3) was “continued to display an altered morphology”, the “Monolayer Saturat. Density” value (R6-C1 control cells [9]; cells per 6 cm plate on day 11) was 4.2 × 10^6 and the “Monolayer Doubling Time” value (R6-C1 control cells [9]; [16]) was 24.6 h. For the same molecule, the “Monolayer Saturat. Density” value (R6-PKC5 cells [10]; cells per 6 cm plate on day 11) was 7.0 × 10^6, the “Monolayer Doubling Time” value (R6-PKC5 cells [10]; [16]) was 22.9 h and the “growth in agar” value ([11]; R6-C1, TPA 100 ng/ml in agar medium) was “still failed to grow in agar”. For the same molecule, the “Agar Effic.” value ([11]; R6C1 (control), + TPA 100 ng/ml, 0.3% agar) was 0%, the “Monolayer Saturat. Density” value (R6-PKC3 cells [12]; R6-PKC3 (test), + TPA 100 ng/ml, cells per 6 cm plate on day 11) was 10.0 × 10^6 and the “Monolayer Doubling Time” value (R6-PKC3 cells [12]; R6-PKC3 (test), + TPA 100 ng/ml, initial exponential phase, DMEM plus 10% CS) was 21.5 h. The “cell density when maintained in TPA for a longer period” value (R6-PKC3 cells [12]; R6-PKC3, monolayer, longer period in presence of TPA, cells detach from plate) was “showed a decline in cell density”.
In the case of CC/C(=C(\c1ccccc1)c1ccc(OCCN(C)C)cc1)c1ccccc1 [Tamoxifen, tamoxifen], the “inhibition of growth in agar” value ([2]; all of the cell lines overproducing PKC) is reported as “completely inhibiting the growth in agar”, the “Effic. of Growth In Agar (%)” value ([3]; R6-PKC5, inhibitor 5 μM) is reported as 19% and the “Effic. of Growth In Agar (%)” value ([3]; R6-PKC5, inhibitor 20 μM) is reported as 17%. For the same molecule, the “Effic. of Growth In Agar (%)” value ([3]; R6-PKC5, inhibitor 50 μM) was 8%, the “Effic. of Growth In Agar (%)” value ([3]; R6-PKC5, inhibitor 100 μM) was 0% and the “Effic. of Growth In Agar (%)” value ([3]; R6-PKC5, inhibitor 200 μM) was 0%. For the same molecule, the “Effic. of Growth In Agar (%)” value ([4]; R6-PKC3, inhibitor 5 μM) was 27%, the “Effic. of Growth In Agar (%)” value ([4]; R6-PKC3, inhibitor 20 μM) was 22% and the “Effic. of Growth In Agar (%)” value ([4]; R6-PKC3, inhibitor 50 μM) was 15%. For the same molecule, the “Effic. of Growth In Agar (%)” value ([4]; R6-PKC3, inhibitor 100 μM) was 6%, the “Effic. of Growth In Agar (%)” value ([4]; R6-PKC3, inhibitor 200 μM) was 0% and the “effect on PKC enzyme activity” value (PKC) was “inhibits PKC enzyme activity”.
